Reference: US10260068B2, “Prophylactic agent and therapeutic agent for fibrodysplasia ossificans progressiva” (Sumitomo Dainippon Pharma Co., Ltd., priority 2014, dated 2019)

Assays:
Assay type in all cases: cell-based, human
SMAD1/5/8 [1] = test: SMAD1/5/8 phosphorylation by Western blotting in gene-corrected clone derived cells; details: 10 and 100 ng/mL activin A or 100 ng/mL BMP-7, 60 minutes
Protocol: Mesenchymal stem cell-like cells from a patient iPS cell line and a gene-corrected iPS cell clone were each prepared by the same method as Example 1. Culturing was conducted for 60 minutes with addition of 10 ng/mL and 100 ng/mL of human activin A or 100 ng/mL of human BMP-7 to the mesenchymal stem cell-like cells. The cells were then solubilized with 300 μL of a dissolving solution (70 mM Tris-HCl buffer solution, pH 6.8, 11.2% glycerol, 3% sodium dodecyl sulfate), and a cell extract was prepared. The amount of phosphorylated SMAD1/5/8 and the amount of total SMAD1/5/8 in the obtained cell extract were quantified by Western blotting. As the primary antibody for phosphorylated SMAD1/5/8 there was used rabbit anti-phosphorylated SMAD1/5/8 antibody [product of Cell Signaling Tech., trade name: Phospho-Smad1 (Ser463/465)/Smad5 (Ser463/465)/Smad8 (Ser426/428) Antibody (Rabbit)], and as the primary antibody for total SMAD1/5/8 there was used rabbit anti-total SMAD1/5/8 antibody [product of Santa Cruz Biotechnology, trade name: Smad1/5/8 Antibody (N-18)-R (Rabbit)]. The secondary antibody used was horseradish peroxidase conjugated anti-rabbit antibody (product of Cell Signaling Tech., trade name: Anti-rabbit IgG, HRP-linked Antibody). […]

SMAD1/5/8 [2] = test: SMAD1/5/8 phosphorylation by Western blotting in FOP patient derived cells; details: for amount of total SMAD1/5/8: Western blotting, 60 minutes treatment, FOP patient derived and gene-corrected clone derived cells
Protocol: Mesenchymal stem cell-like cells from a patient iPS cell line and a gene-corrected iPS cell clone were each prepared by the same method as Example 1. Culturing was conducted for 60 minutes with addition of 10 ng/mL and 100 ng/mL of human activin A or 100 ng/mL of human BMP-7 to the mesenchymal stem cell-like cells. The cells were then solubilized with 300 μL of a dissolving solution (70 mM Tris-HCl buffer solution, pH 6.8, 11.2% glycerol, 3% sodium dodecyl sulfate), and a cell extract was prepared. The amount of phosphorylated SMAD1/5/8 and the amount of total SMAD1/5/8 in the obtained cell extract were quantified by Western blotting. As the primary antibody for phosphorylated SMAD1/5/8 there was used rabbit anti-phosphorylated SMAD1/5/8 antibody [product of Cell Signaling Tech., trade name: Phospho-Smad1 (Ser463/465)/Smad5 (Ser463/465)/Smad8 (Ser426/428) Antibody (Rabbit)], and as the primary antibody for total SMAD1/5/8 there was used rabbit anti-total SMAD1/5/8 antibody [product of Santa Cruz Biotechnology, trade name: Smad1/5/8 Antibody (N-18)-R (Rabbit)]. The secondary antibody used was horseradish peroxidase conjugated anti-rabbit antibody (product of Cell Signaling Tech., trade name: Anti-rabbit IgG, HRP-linked Antibody). The substrate used for chemiluminescence was ECL Prime (product of GE Healthcare), and ChemiDocXRSPlus (product of Bio-Rad Laboratories, Inc.) was used for the detection.

[3] = tested on: FOP patient derived cells; test: Differentiation to chondrocytes (Alcian blue, sulfated glycosaminoglycan assay) of FOP patient derived cells; details: for cartilage induction (sulfated glycosaminoglycan assay): 100 ng/mL activin A, vs untreated group
Protocol: Mesenchymal stem cell-like cells from a patient iPS cell line and a gene-corrected iPS cell clone were each prepared by the same method as Example 1. The mesenchymal stem cell-like cells were cultured for 6 days under the medium conditions used in the method of Umeda et al. (Sci. Rep., 2012, 2, 455), for differentiation to chondrocytes. During differentiation, 100 ng/mL of human activin A, 100 ng/mL of human BMP-7 or 1 ng/mL of human TGF-β3 (product of R&D Systems, Inc., trade name: Recombinant Human TGF-beta 3) was added and the effect of each factor on differentiation to chondrocytes was examined. The extent of differentiation to chondrocytes was measured with Alcian blue dye and a sulfated glycosaminoglycan assay kit (product of Biocolor, Ltd., trade name: Blyscan Glycosaminoglycan Assay Kit). In FIG. 4, the bar graph indicates the mean values for each treated group, and the error bars represent S.D.

[4] = FOP patient derived cells, 100 ng/mL BMP-7 or 1 ng/mL TGF-β3, 6 days

Molecule	phosphorylation of SMAD1/5/8 (SMAD1/5/8 [1])	phosphorylation of SMAD1/5/8 (SMAD1/5/8 [2]; FOP patient derived cells, 10 and 100 ng/mL activin A, 60 minutes)	amount of total SMAD1/5/8 (SMAD1/5/8 [2])	sulfated glycosaminoglycan production in FOP patient derived cells compared to gene-corrected cells ([3]; 100 ng/mL, 6 days) [fold]	cartilage induction (sulfated glycosaminoglycan assay) [3, 4]	differentiation to chondrocytes (Alcian blue staining) ([3]; FOP patient derived cells, 100 ng/mL, 6 days)	cartilage induction effect compared to the effect exhibited by activin A on FOP patient derived cells ([3]; 100 ng/mL BMP-7 or 1 ng/mL TGF-β3, 6 days)
human activin A: Recombinant Human/Mouse/Rat Activin A (R&D Systems); homodimer of inhibin βA chains	no phosphorylation of SMAD1/5/8 was induced	induced	No significant change	4	very notably enhances	notably enhances	–
BMP-7: Recombinant Human BMP-7 (R&D Systems); cytokine of the BMP family (protein) STGSKQRSQNRSKTPKNQEALRMANVAENSSSDQRQACKKHELYVSFRDLGWQDWIIAPEGYAAYYCEGECAFPLNSYMNATNHAIVQTLVHFINPETVPKPCCAPTQLNAISVLYFDDSSNVILKKYRNMVVRACGCH	occurred	–	No significant change	–	significantly enhanced	–	weaker
